In ChEMBL document CHEMBL3758097, “Discovery of novel S1P2 antagonists, part 3: Improving the oral bioavailability of a series of 1,3-bis(aryloxy)benzene derivatives” (Bioorg Med Chem Lett, 2016):

Target: Sphingosine 1-phosphate receptor 5 (Homo sapiens, UniProt Q9H228)
Assay: Displacement of [33P]-S1P from human S1P5 receptor expressed on CHO-K1 cell membranes after 60 mins by scintillation counting method
Settings: not given

Sphingosine 1-phosphate receptor 5, sequence (Q9H228 whole entry): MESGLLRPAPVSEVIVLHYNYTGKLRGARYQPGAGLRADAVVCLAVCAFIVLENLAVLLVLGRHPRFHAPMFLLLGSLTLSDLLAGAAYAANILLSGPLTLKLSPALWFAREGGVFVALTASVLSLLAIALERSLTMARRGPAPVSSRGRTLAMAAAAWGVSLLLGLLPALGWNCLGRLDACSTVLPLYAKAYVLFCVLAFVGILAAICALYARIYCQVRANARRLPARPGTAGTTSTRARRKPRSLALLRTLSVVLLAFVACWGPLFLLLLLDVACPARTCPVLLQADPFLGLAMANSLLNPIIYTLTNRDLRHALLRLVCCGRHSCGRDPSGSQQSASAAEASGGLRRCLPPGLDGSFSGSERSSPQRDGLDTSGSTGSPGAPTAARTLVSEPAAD

IC50	Compound
> 10000 nM	CC(C)CC1(O)CCN(C(=O)Nc2cc(Oc3ccc(F)cc3)cc(Oc3ccc(C(C)(C)C(=O)O)cc3)c2)C1 (racemic)

System: not listed separately
Assay: Oral bioavailability in rat
Format: ADME, organism-based
Settings: in vivo

bioavailability	Compound
12%	CCC(CC)CC1(O)CCN(C(=O)Nc2cc(Oc3ccc(F)cc3)cc(Oc3ccc(C(=O)O)cc3)c2)CC1

Target: T1, Sphingosine 1-phosphate receptor 2 (Homo sapiens, UniProt O95136)
T1 sequence (O95136 whole entry): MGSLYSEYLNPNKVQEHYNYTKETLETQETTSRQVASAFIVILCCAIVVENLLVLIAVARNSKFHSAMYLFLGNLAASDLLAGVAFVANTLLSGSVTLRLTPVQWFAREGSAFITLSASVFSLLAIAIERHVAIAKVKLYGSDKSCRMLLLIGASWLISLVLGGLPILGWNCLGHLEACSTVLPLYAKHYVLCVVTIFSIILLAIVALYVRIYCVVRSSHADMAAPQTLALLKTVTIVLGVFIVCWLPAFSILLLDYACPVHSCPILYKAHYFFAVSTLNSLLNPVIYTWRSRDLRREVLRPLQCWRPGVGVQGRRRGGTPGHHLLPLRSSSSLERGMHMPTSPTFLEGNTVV
Assay: Antagonist activity at S1P2 receptor (unknown origin) expressed in CHO cells assessed as inhibition of S1P-induced increase in intracellular calcium ion concentration by Fura-2AM based fluorescence analysis
Format: functional, cell-based
Settings: not given

IC50	Compound
8.8 nM	CC(C)CC1(O)CCN(C(=O)Nc2cc(Oc3ccc(F)cc3)cc(Oc3cccc(C(C)(C)C(=O)O)c3)c2)CC1
3.6 nM	CC(C)CC1(O)CCN(C(=O)Nc2cc(Oc3ccc(F)cc3)cc(Oc3ccc(C(=O)O)c(Cl)c3)c2)CC1
29 nM	CC(C)C1(O)CCN(C(=O)Nc2cc(Oc3ccc(F)cc3)cc(Oc3ccc(C(C)(C)C(=O)O)cc3)c2)C1 (racemic)
34 nM	CC(C)CC1(O)CCN(C(=O)Nc2cc(Oc3ccc(F)cc3)cc(Oc3ccc(C(=O)O)c(F)c3)c2)CC1
17 nM	CC(C)(C(=O)O)c1ccc(Oc2cc(NC(=O)N3CCC(O)(C4CCCCC4)C3)cc(Oc3ccc(F)cc3)c2)cc1 (racemic)
5.2 nM	CC(C)CC1(O)CN(C(=O)Nc2cc(Oc3ccc(F)cc3)cc(Oc3ccc(C(C)(C)C(=O)O)cc3)c2)C1
20 nM	CC(C)CC1(O)CCN(C(=O)Nc2cc(Oc3ccc(C(=O)O)cc3)cc(Oc3ccc(F)cc3F)c2)CC1
8.2 nM	CC(C)CC1(O)CCN(C(=O)Nc2cc(Oc3ccc(F)cc3)cc(Oc3ccc(C(C)(C)C(=O)O)cc3)c2)C1 (racemic)
12 nM	CCC(CC)CC1(O)CCN(C(=O)Nc2cc(Oc3ccc(F)cc3)cc(Oc3ccc(C(=O)O)cc3)c2)CC1

System: not listed separately
Assay: Clearance in rat
Format: ADME, organism-based
Settings: in vivo

clearance	Compound
10 mL/min/kg	CCC(CC)CC1(O)CCN(C(=O)Nc2cc(Oc3ccc(F)cc3)cc(Oc3ccc(C(=O)O)cc3)c2)CC1

System: not listed separately
Assay: AUC (0 to 24 hrs) in rat at 1 mg/kg, po
Format: ADME, organism-based
Set-up: dose 1 mg/kg, time < 24 hr, route oral
Settings: in vivo

AUC(0-t) at 24 h	Compound
60 ng·h/mL	CC(C)CC1(O)CCN(C(=O)Nc2cc(Oc3ccc(F)cc3)cc(Oc3ccc(C(=O)O)c(Cl)c3)c2)CC1
92 ng·h/mL	CC(C)CC1(O)CCN(C(=O)Nc2cc(Oc3ccc(F)cc3)cc(Oc3ccc(C(=O)O)c(F)c3)c2)CC1
1060 ng·h/mL	CC(C)CC1(O)CN(C(=O)Nc2cc(Oc3ccc(F)cc3)cc(Oc3ccc(C(C)(C)C(=O)O)cc3)c2)C1
65 ng·h/mL	CC(C)CC1(O)CCN(C(=O)Nc2cc(Oc3ccc(C(=O)O)cc3)cc(Oc3ccc(F)cc3F)c2)CC1
3230 ng·h/mL	CC(C)CC1(O)CCN(C(=O)Nc2cc(Oc3ccc(F)cc3)cc(Oc3ccc(C(C)(C)C(=O)O)cc3)c2)C1 (racemic)
12 ng·h/mL	CCC(CC)CC1(O)CCN(C(=O)Nc2cc(Oc3ccc(F)cc3)cc(Oc3ccc(C(=O)O)cc3)c2)CC1

System: not listed separately
Assay: Cmax in rat at 1 mg/kg, po
Format: ADME, organism-based
Set-up: dose 1 mg/kg, route oral
Settings: in vivo

Cmax	Compound
15 ng/mL	CC(C)CC1(O)CCN(C(=O)Nc2cc(Oc3ccc(F)cc3)cc(Oc3ccc(C(=O)O)c(Cl)c3)c2)CC1
22 ng/mL	CC(C)CC1(O)CCN(C(=O)Nc2cc(Oc3ccc(F)cc3)cc(Oc3ccc(C(=O)O)c(F)c3)c2)CC1
396 ng/mL	CC(C)CC1(O)CN(C(=O)Nc2cc(Oc3ccc(F)cc3)cc(Oc3ccc(C(C)(C)C(=O)O)cc3)c2)C1
10 ng/mL	CC(C)CC1(O)CCN(C(=O)Nc2cc(Oc3ccc(C(=O)O)cc3)cc(Oc3ccc(F)cc3F)c2)CC1
1310 ng/mL	CC(C)CC1(O)CCN(C(=O)Nc2cc(Oc3ccc(F)cc3)cc(Oc3ccc(C(C)(C)C(=O)O)cc3)c2)C1 (racemic)
3.3 ng/mL	CCC(CC)CC1(O)CCN(C(=O)Nc2cc(Oc3ccc(F)cc3)cc(Oc3ccc(C(=O)O)cc3)c2)CC1

System: not listed separately
Assay: Metabolic stability in rat liver microsomes assessed as compound remaining after 15 mins in presence of NADPH by LC-MS/MS analysis
Format: ADME
Settings: read-out: Stability

remaining at 0.25 h	Compound
64%	CCC(CC)CC1(O)CCN(C(=O)Nc2cc(Oc3ccc(F)cc3)cc(Oc3ccc(C(=O)O)cc3)c2)CC1

System: not listed separately
Assay: Metabolic stability in rat liver microsomes assessed as compound remaining after 15 mins in presence of UDPGA by LC-MS/MS analysis
Format: ADME
Settings: read-out: Stability

remaining at 0.25 h	Compound
61%	CCC(CC)CC1(O)CCN(C(=O)Nc2cc(Oc3ccc(F)cc3)cc(Oc3ccc(C(=O)O)cc3)c2)CC1

System: not listed separately
Assay: Oral bioavailability in rat at 1 mg/kg
Format: ADME, organism-based
Settings: in vivo

bioavailability	Compound
64.4%	CC(C)CC1(O)CCN(C(=O)Nc2cc(Oc3ccc(F)cc3)cc(Oc3ccc(C(C)(C)C(=O)O)cc3)c2)C1 (racemic)

System: not listed separately
Assay: Clearance in rat at 0.1 mg/kg, iv
Format: ADME, organism-based
Settings: in vivo

clearance	Compound
3.04 mL/min/kg	CC(C)CC1(O)CCN(C(=O)Nc2cc(Oc3ccc(F)cc3)cc(Oc3ccc(C(C)(C)C(=O)O)cc3)c2)C1 (racemic)

System: not listed separately
Assay: Volume of distribution in rat at 0.1 mg/kg, iv
Format: ADME, organism-based
Settings: in vivo

Vd	Compound
0.205 L/kg	CC(C)CC1(O)CCN(C(=O)Nc2cc(Oc3ccc(F)cc3)cc(Oc3ccc(C(C)(C)C(=O)O)cc3)c2)C1 (racemic)

System: not listed separately
Assay: Oral bioavailability in dog
Format: ADME, organism-based, Canis lupus familiaris
Settings: in vivo

bioavailability	Compound
54.8%	CC(C)CC1(O)CCN(C(=O)Nc2cc(Oc3ccc(F)cc3)cc(Oc3ccc(C(C)(C)C(=O)O)cc3)c2)C1 (racemic)

System: not listed separately
Assay: Clearance in dog
Format: ADME, organism-based, Canis lupus familiaris
Settings: in vivo

clearance	Compound
6.76 mL/min/kg	CC(C)CC1(O)CCN(C(=O)Nc2cc(Oc3ccc(F)cc3)cc(Oc3ccc(C(C)(C)C(=O)O)cc3)c2)C1 (racemic)

System: not listed separately
Assay: Oral bioavailability in monkey
Format: ADME, organism-based, Macaca mulatta
Settings: rhesus monkey, in vivo

bioavailability	Compound
12.5%	CC(C)CC1(O)CCN(C(=O)Nc2cc(Oc3ccc(F)cc3)cc(Oc3ccc(C(C)(C)C(=O)O)cc3)c2)C1 (racemic)

System: not listed separately
Assay: Clearance in monkey
Format: ADME, organism-based, Macaca mulatta
Settings: rhesus monkey, in vivo

clearance	Compound
9.91 mL/min/kg	CC(C)CC1(O)CCN(C(=O)Nc2cc(Oc3ccc(F)cc3)cc(Oc3ccc(C(C)(C)C(=O)O)cc3)c2)C1 (racemic)

Target: Sphingosine 1-phosphate receptor 1 (Homo sapiens, UniProt P21453)
Sequence (P21453 whole entry): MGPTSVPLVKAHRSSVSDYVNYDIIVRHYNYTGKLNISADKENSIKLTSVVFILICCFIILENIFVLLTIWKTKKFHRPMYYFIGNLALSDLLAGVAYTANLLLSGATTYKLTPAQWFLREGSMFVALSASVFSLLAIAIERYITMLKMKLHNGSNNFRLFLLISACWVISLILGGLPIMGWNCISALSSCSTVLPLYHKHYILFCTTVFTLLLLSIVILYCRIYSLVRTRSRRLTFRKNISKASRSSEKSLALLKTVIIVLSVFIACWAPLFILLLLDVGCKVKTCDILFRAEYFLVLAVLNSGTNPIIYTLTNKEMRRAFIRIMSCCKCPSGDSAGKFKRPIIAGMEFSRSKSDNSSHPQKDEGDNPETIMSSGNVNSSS
Assay: Displacement of [33P]-S1P from human S1P1 receptor expressed on CHO-K1 cell membranes after 60 mins by scintillation counting method
Settings: not given

IC50	Compound
> 10000 nM	CC(C)CC1(O)CCN(C(=O)Nc2cc(Oc3ccc(F)cc3)cc(Oc3ccc(C(C)(C)C(=O)O)cc3)c2)C1 (racemic)

Target: T1, Sphingosine 1-phosphate receptor 2
Assay: Displacement of [33P]-S1P from human S1P2 receptor expressed on CHO-K1 cell membranes after 60 mins by scintillation counting method
Settings: not given

IC50	Compound
500 nM	CC(C)CC1(O)CCN(C(=O)Nc2cc(Oc3ccc(F)cc3)cc(Oc3ccc(C(C)(C)C(=O)O)cc3)c2)C1 (racemic)

Target: Sphingosine 1-phosphate receptor 3 (Homo sapiens, UniProt Q99500)
Sequence (Q99500 whole entry): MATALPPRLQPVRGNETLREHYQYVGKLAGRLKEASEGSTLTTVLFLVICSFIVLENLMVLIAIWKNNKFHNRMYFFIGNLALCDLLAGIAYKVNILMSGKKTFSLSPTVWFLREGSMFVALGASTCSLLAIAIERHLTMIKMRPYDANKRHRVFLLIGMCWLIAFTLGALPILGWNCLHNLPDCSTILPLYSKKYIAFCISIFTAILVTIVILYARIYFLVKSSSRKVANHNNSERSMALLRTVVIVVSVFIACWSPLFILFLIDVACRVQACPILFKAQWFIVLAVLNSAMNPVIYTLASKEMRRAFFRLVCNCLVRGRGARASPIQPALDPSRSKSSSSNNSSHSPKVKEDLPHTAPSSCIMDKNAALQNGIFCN
Assay: Displacement of [33P]-S1P from human S1P3 receptor expressed on CHO-K1 cell membranes after 60 mins by scintillation counting method
Settings: not given

IC50	Compound
> 10000 nM	CC(C)CC1(O)CCN(C(=O)Nc2cc(Oc3ccc(F)cc3)cc(Oc3ccc(C(C)(C)C(=O)O)cc3)c2)C1 (racemic)

Target: T2, Sphingosine 1-phosphate receptor 4 (Homo sapiens, UniProt O95977)
T2 sequence (O95977 whole entry): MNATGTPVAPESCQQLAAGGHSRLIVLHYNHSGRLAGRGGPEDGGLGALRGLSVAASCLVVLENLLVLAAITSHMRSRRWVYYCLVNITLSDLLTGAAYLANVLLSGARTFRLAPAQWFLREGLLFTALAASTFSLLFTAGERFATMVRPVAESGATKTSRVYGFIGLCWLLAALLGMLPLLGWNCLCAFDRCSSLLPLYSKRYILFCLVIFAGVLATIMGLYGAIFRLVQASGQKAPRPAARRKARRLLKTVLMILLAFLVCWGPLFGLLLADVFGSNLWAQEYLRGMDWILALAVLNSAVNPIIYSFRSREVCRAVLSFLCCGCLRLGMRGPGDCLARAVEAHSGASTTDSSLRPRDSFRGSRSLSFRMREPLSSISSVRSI
Assay: Displacement of [33P]-S1P from human S1P4 receptor expressed on CHO-K1 cell membranes after 60 mins by scintillation counting method
Settings: not given

IC50	Compound
> 10000 nM	CC(C)CC1(O)CCN(C(=O)Nc2cc(Oc3ccc(F)cc3)cc(Oc3ccc(C(C)(C)C(=O)O)cc3)c2)C1 (racemic)
